Legend:
HCT-116 [1] = assay: Potency index, ratio of etoposide IC50 to test compound IC50 for antiproliferative activity against human HCT116 cells; assay type: functional
HCT-116 [2] = assay: Antiproliferative activity against human HCT116 cells incubated for 3 days by MTT assay; assay type: functional, cell-based; details: HCT-116, 72 h
HepG2 [3] = assay: Antiproliferative activity against human HepG2 cells incubated for 3 days by MTT assay; assay type: functional, cell-based; details: HepG2, 72 h
A549 [4] = assay: Antiproliferative activity against human A549 cells incubated for 3 days by MTT assay; assay type: functional, cell-based; details: A549, 72 h
A549 [5] = assay: Potency index, ratio of etoposide IC50 to test compound IC50 for antiproliferative activity against human A549 cells; assay type: functional
HepG2 [6] = assay: Potency index, ratio of etoposide IC50 to test compound IC50 for antiproliferative activity against human HepG2 cells; assay type: functional
SMMC-7721 [7] = assay: Potency index, ratio of etoposide IC50 to test compound IC50 for antiproliferative activity against human SMMC7721 cells; assay type: functional
HL-60 [8] = assay: Potency index, ratio of etoposide IC50 to test compound IC50 for antiproliferative activity against human HL60 cells; assay type: functional
MCF7 [9] = assay: Antiproliferative activity against human MCF7 cells incubated for 48 hrs by MTT assay; assay type: functional, cell-based; details: MCF7, 48 h
SW480 [10] = assay: Antiproliferative activity against human SW480 cells incubated for 48 hrs by MTT assay; assay type: functional, cell-based; details: SW480, 48 h
SMMC-7721 [11] = assay: Antiproliferative activity against human SMMC-7721 cells incubated for 48 hrs by MTT assay; assay type: functional, cell-based; details: SMMC-7721, 48 h
MCF7 [12] = assay: Potency index, ratio of etoposide IC50 to test compound IC50 for antiproliferative activity against human MCF7 cells; assay type: functional
HL-60 [13] = assay: Antiproliferative activity against human HL-60 cells incubated for 48 hrs by MTT assay; assay type: functional, cell-based; details: HL-60, 48 h
A549 [14] = assay: Antiproliferative activity against human A549 cells incubated for 72 hrs by MTT assay; assay type: functional, cell-based; details: A549, 72 h
SW480 [15] = assay: Potency index, ratio of etoposide IC50 to test compound IC50 for antiproliferative activity against human SW480 cells; assay type: functional
DU-145 = assay: Antiproliferative activity against human DU145 cells by MTT assay; assay type: functional, cell-based
[16] = Selectivity index, ratio of CC50 for human BEAS2B cells to IC50 for human HL60 cells; assay type: toxicity; details: read-out: Ratio CC50/IC50
[17] = Selectivity index, ratio of CC50 for human BEAS2B cells to IC50 for human SMMC7721 cells; assay type: toxicity; details: read-out: Ratio CC50/IC50
[18] = Cytotoxicity against human BEAS2B cells; assay type: cell-based; details: BEAS-2B cells
[19] = Selectivity index, ratio of CC50 for human BEAS2B cells to IC50 for human A549 cells; assay type: toxicity; details: read-out: Ratio CC50/IC50
A549 [20] = assay: Antiproliferative activity against human A549 cells incubated for 48 hrs by MTT assay; assay type: functional, cell-based; details: A549, 48 h
[21] = Selectivity index, ratio of CC50 for human BEAS2B cells to IC50 for human SW480 cells; assay type: toxicity; details: read-out: Ratio CC50/IC50
[22] = Selectivity index, ratio of CC50 for human BEAS2B cells to IC50 for human MCF7 cells; assay type: toxicity; details: read-out: Ratio CC50/IC50
MCF7 [23] = assay: Cytotoxicity against human MCF7 cells by MTT assay; assay type: functional, cell-based
SMMC-7721 [24] = assay: Antiproliferative activity against human SMMC-7721 cells by MTT assay; assay type: functional, cell-based
A549 [25] = assay: Antiproliferative activity against human A549 cells by MTT assay; assay type: functional, cell-based
HL-60 [26] = assay: Antiproliferative activity against human HL-60 cells by MTT assay; assay type: functional, cell-based
SW480 [27] = assay: Antiproliferative activity against human SW480 cells by MTT assay; assay type: functional, cell-based
[28] = Plasma clearance in Sprague-Dawley rat at 2.5 mg/kg, iv measured after 5 to 1440 mins by LC-MS/MS analysis; assay type: ADME, organism-based; parameters: dose 2.5 mg/kg, time upper 1440 min, time lower 5 min; details: time 5-1440 min, dose 2.5 mg/kg
[29] = AUCinfinity in Sprague-Dawley rat at 2.5 mg/kg, iv measured after 5 to 1440 mins by LC-MS/MS analysis; assay type: ADME, organism-based; parameters: route intravenous, dose 2.5 mg/kg, time upper 1440 min, time lower 5 min; details: in vivo, 2.5 mg/kg
[30] = Terminal half life in Sprague-Dawley rat at 2.5 mg/kg, iv measured after 5 to 1440 mins by LC-MS/MS analysis; assay type: ADME, organism-based; details: in vivo, time 5-1440 min, read-out: beta t1/2 (converted)
[31] = Mean initial plasma concentration in Sprague-Dawley rat at 2.5 mg/kg, iv measured after 5 to 1440 mins by LC-MS/MS analysis; assay type: ADME, organism-based; details: rat, plasma, iv, time 5-1440 min, dose 2.5 mg/kg, read-out: C0
[32] = MRT in Sprague-Dawley rat at 2.5 mg/kg, iv measured after 5 to 1440 mins by LC-MS/MS analysis; assay type: ADME, organism-based; details: in vivo, time 5-1440 min

COc1cc([C@@H]2c3cc4c(cc3[C@@H](NC(=S)NC(=O)c3ccccc3)[C@H]3COC(=O)[C@H]23)OCO4)cc(OC)c1OC
Ratio IC50 (HCT-116 [1]): 49 | IC50 (HCT-116 [2]): 0.1 µM | IC50 (HepG2 [3]): 0.1 µM | IC50 (A549 [4]): 0.1 µM | Ratio IC50 (A549 [5]): 49 | Ratio IC50 (HepG2 [6]): 49

COc1cc([C@@H]2c3cc4c(cc3[C@@H](n3cc(CO[C@H]5O[C@H](CO)[C@H](O)[C@H](O)[C@H]5O)nn3)[C@H]3COC(=O)[C@H]23)OCO4)cc(OC)c1O
Ratio IC50 (SMMC-7721 [7]): 2 | Ratio IC50 (HL-60 [8]): 2 | IC50 (MCF7 [9]): 2.85 µM | IC50 (SW480 [10]): 2.85 µM | IC50 (SMMC-7721 [11]): 2.85 µM | Ratio IC50 (A549 [5]): 2 | Ratio IC50 (MCF7 [12]): 2 | IC50 (HL-60 [13]): 2.85 µM | IC50 (A549 [14]): 2.85 µM | Ratio IC50 (SW480 [15]): 2

COc1cc([C@@H]2c3cc4c(cc3[C@@H](OCc3cn([C@@H]5O[C@H](COC(C)=O)[C@@H](OC(C)=O)[C@H](OC(C)=O)[C@H]5OC(C)=O)nn3)[C@H]3COC(=O)[C@H]23)OCO4)cc(OC)c1OC
IC50 (DU-145): 1.02 µM

CCCC(=O)OC[C@H]1O[C@@H](OC(COCc2cn([C@@H]3c4cc5c(cc4[C@@H](c4cc(OC)c(OC)c(OC)c4)[C@H]4C(=O)OC[C@@H]43)OCO5)nn2)COCc2cn([C@@H]3c4cc5c(cc4[C@@H](c4cc(OC)c(OC)c(OC)c4)[C@H]4C(=O)OC[C@@H]43)OCO5)nn2)[C@H](OC(=O)CCC)[C@@H](OC(=O)CCC)[C@@H]1OC(=O)CCC (stereo partly drawn)
selectivity ratio [16]: 4.3 | IC50 (MCF7 [9]): 0.43 µM | IC50 (SW480 [10]): 0.43 µM | IC50 (SMMC-7721 [11]): 0.43 µM | selectivity ratio [17]: 4.3 | CC50 [18]: 15.4 µM | selectivity ratio [19]: 4.3 | IC50 (HL-60 [13]): 0.43 µM | IC50 (A549 [20]): 0.43 µM | selectivity ratio [21]: 4.3 | selectivity ratio [22]: 4.3

COc1cc([C@@H]2c3cc4c(cc3[C@@H](n3cc(CO[C@@H]5O[C@H](CO[C@@H]6O[C@H](CO)[C@@H](O)[C@H](O)[C@H]6O)[C@@H](O)[C@H](O)[C@H]5O)nn3)[C@H]3COC(=O)[C@H]23)OCO4)cc(OC)c1OC
IC50 (MCF7 [23]): 0.67 µM | IC50 (SMMC-7721 [24]): 0.67 µM | IC50 (A549 [25]): 0.67 µM | IC50 (HL-60 [26]): 0.67 µM | IC50 (SW480 [27]): 0.67 µM

COc1cc([C@@H]2c3cc4c(cc3[C@@H](NCC(F)(F)[C@]3(O)O[C@H](CO)[C@@H](O)[C@H](O)[C@H]3O)[C@H]3COC(=O)[C@H]23)OCO4)cc(OC)c1OC
clearance [28]: 1.14 L/h/kg | AUC(0-inf) [29]: 2.21 µg·h/mL | half-life [30]: 67.8 min | C0 [31]: 8.78 µg/mL | MRT [32]: 16.2 min
